Measurements reported in patent US20250353860A1, “PIPERIDINE CARBOXAMIDE AZAINDANE DERIVATIVE, METHOD FOR PREPARING SAME, AND USE THEREOF” (BRISE PHARMACEUTICALS CO., LTD., priority 2022, published 2025).

Assays:
[1] = target: T1, CGRP receptor (Homo sapiens, UniProt O60894+Q16602); experiment: Inhibition of CGRP signaling pathway (cAMP, HTRF) in CHO-K1 cells expressing human CGRP receptors; assay type: cell-based; design: host or cells: CHO-K1; conditions: [α-CGRP]=10 ng/ml; increase in cAMP levels; read-out: IC50 of the inhibitory effect on the CGRP signaling pathway in CHO-K1 cells expressing human CGRP receptors
Method: (§1) The inhibitory effect of the CGRP signaling pathway in vitro is evaluated by measuring the cAMP level. The principle is that after CGRP binds to the CGRP receptor, the CGRP signaling pathway is activated, inducing an increase in the cAMP level. […] The specific experimental method is as follows:
CHO-K1 cells expressing human CGRP receptor (CGRPR/CHO-K1, PerkinElmer, ES-420-C) were cultured in F12K+10% FBS+400 μg/mL G418+10 μg/mL Blasticidin medium, and the cells were collected in the logarithmic growth phase. According to the instructions of the kit, the cells were resuspended in Stimulation Buffer comprising 0.5 mM IBMX, and 5 μL of the cell suspension was added to each well of a 96-well microplate (Cisbio, 66PL96025) at a cell density of 15,000 cells/well. 2.5 μL of gradient diluted compound solution was added to each well. After incubation at 37° C. for 30 minutes, 2.5 μL of 40 ng/ml human α-CGRP (Bachem, H-1470,0500) diluted in Stimulation Buffer comprising 0.5 mM IBMX was added to each well to a final concentration of 10 ng/ml. After incubation at 37° C. for 30 minutes, 5 μL of Anti-cAMP-Cryptate solution and 5 μL of cAMP-d2 solution were added to each well. After incubation at room temperature for 60 minutes, the HTRF signal was read using a microplate reader (Molecular Devices). Graphpad Prism was used to calculate the IC50 value of the compound's inhibitory effect on the increase in cAMP levels based on the compound concentration and HTRF signal.

[2] = target: T1, CGRP receptor; experiment: Affinity for human CGRP receptor ([125I]h-CGRPα competition, CHO cell membranes); assay type: binding; design: host or cells: CHO-K1; conditions: 0.03 nM [125I]h-CGRPα; Cheng Prusoff; read-out: Ki of the affinity determination to human CGRP receptor
Method: The cell membrane homogenate of CHO cells expressing human CGRP receptor (comprising 16 μg of protein) was incubated with 0.03 nM [^125I]h-CGRPα and gradiently diluted test samples in buffer (50 mM Hepes-NaOH (pH 7.4), 10 mM MgCl2, 4 mM KCl, 10 mM […], 1 mM EDTA, 1 μM phosphorylation amide, 0.3% BSA and 0.04% bacitracin) at 22° C. for 90 minutes. A control group without the test sample was set up to obtain the highest binding signal of the experiment, and the non-specific binding of the experiment was determined by adding 1 μM non-isotope-labeled h-CGRPα to the control group. After the incubation, a glass fiber filter (GF/B, Packard) soaked with 0.3% PEI was placed in a 96-well cell collector (Unfilter, Packard), and the sample was quickly filtered under vacuum and rinsed several times with precooled buffer comprising 50 mM Tris-HCl and 150 mM NaCl. After the filter was dried, scintillation fluid (Microscint 0, Packard) was added and the radioactive signal value was measured using a scintillation counter (Topcount, Packard). The results are expressed as the percentage of inhibition of specific binding of the radioligand. Non-isotope labeled h-CGRPα was used as a standard sample as a control. The test samples and standard samples were tested at multiple concentrations to obtain a competition curve with [^125I]h-CGRPα, thereby calculating the IC50) 20 of each sample. The inhibition constant Ki was further calculated using the Cheng Prusoff equation: Ki=IC50/(1+L/KD), wherein L represents the concentration of [^125I]h-CGRPα in the system (0.03 nM), and KD represents the dissociation constant between [^125I]h-CGRPα and the human CORP receptor in the system (0.06 nM).

[3] = Pharmacokinetics in Cynomolgus monkeys by oral gavage; assay type: in vivo; conditions: for Pharmacokinetic properties compared with Atogepant: conclusion in words; for AUC / half-life / Cmax: male, cynomolgus monkey, plasma, PO 2 mg/kg; for half-life: read-out: Half-life T½ (converted); for Cmax: read-out: Plasma concentration Cmax
Method: The compounds of the present application were administered by gavage to cynomolgus monkeys as test animals, and the drug concentrations in plasma at different times were determined by LC/MS/MS to study the pharmacokinetic characteristics of the compounds of the present application […].
• Positive control compound Atogepant, Example 1A and Example 3A of the present application; • Six healthy adult male Cynomolgus monkeys, Kangshun Biotechnology Co., Ltd.
An appropriate amount of the compound to be tested was weighed, added with 100% polyethylene glycol 400, and vortexed to dissolve the compound. After the preparation was completed, it would be a colorless and transparent solution with a concentration of 1 mg/mL.
Six healthy adult male cynomolgus monkeys were fasted overnight and fed 4 hours after drug administration.
About 0.2 mL of blood was collected from the jugular vein before administration and 0.25 hours, 0.5 hours, 1 hour, 2 hours, 4 hours, 6 hours, 8 hours, 10 hours and 24 hours after administration, and anticoagulated with EDTA-K2. After blood samples were collected, they were placed in labeled ice-water bath centrifuge tubes and rapidly centrifuged to separate plasma. The centrifugation conditions were: 4000 rpm, 10 minutes, 4° C. The collected plasma was stored at below −40° C. for testing. The content of the test compound in the plasma of Cynomolgus monkeys after gavage of different compounds was determined by LC-MS/MS.

[4] = target: T1, CGRP receptor; experiment: Inhibition of CGRP signaling pathway (cAMP, HTRF) in SK-N-MC cells; assay type: cell-based; design: SK-N-MC (ATCC, HTB-10) cells endogenously expressing CGRP receptor; host or cells: SK-N-MC; conditions: [α-CGRP]=10 ng/mL; increase in cAMP levels; read-out: IC50 of the inhibitory effect on the CGRP signaling pathway in SK-N-MC cells
Method: as §1
cAMP was determined using the CAMP-GS DYNAMIC KIT detection kit (Cisbio, 62AM4PEB).
SK-N-MC (ATCC, HTB-10) cells endogenously expressing CGRP receptor were cultured in EMEM+10% FBS medium and the cells were collected during the logarithmic growth phase. According to the instructions of the kit, the cells were resuspended in Stimulation Buffer comprising 0.5 mM IBMX, and 5 μL of the cell suspension was added to each well of a 96-well microplate (Cisbio, 66PL96025) at a cell density of 15,000 cells/well, 2.5 μL of gradient diluted compound solution was added to each well. After incubation at 37° C. for 30 minutes, 2.5 μL of 40 ng/ml human α-CGRP (Bachem, H-1470.0500) diluted in Stimulation Buffer comprising 0.5 mM IBMX was added to each well to a final concentration of 10 ng/ml. After incubation at 37° C. for 30 minutes, 5 μL of Anti-cAMP-Cryptate solution and 5 μL of cAMP-d2 solution were added to each well. After incubation at room temperature for 60 minutes, the HTRF signal was read using a microplate reader (Molecular Devices). Graphpad Prism was used to calculate the IC50 value of the compound's inhibitory effect on the increase in cAMP levels based on the compound concentration and HTRF signal.

| IC50 [1] [nM] | Ki [2] [nM] | Pharmacokinetic properties compared with Atogepant [3] | AUC [3] [ng·h/mL] | half-life [3] [h] | Cmax [3] [ng/mL] | IC50 [4] [nM] | SMILES |
| --- | --- | --- | --- | --- | --- | --- | --- |
| 14.5 | 0.017 | good pharmacokinetic properties | 1840 ± 1190 | 3.77 ± 0.2 | 294 ± 166 | 0.18 | C[C@@H]1[C@H](c2c(F)ccc(F)c2F)C[C@H](NC(=O)c2cc3c(o2)CC[C@]2(C3)C(=O)Nc3ncccc32)C(=O)N1CC(F)(F)F [Example 1A, (R)—N-((3S,5S,6R)-6-methyl-2-oxo-1-(2,2,2-trifluoroethyl)-5-(2,3,6-trifluorophenyl)piperidin-3-yl)-2′-oxo-1′,2′,6,7-tetrahydro-4H-spiro[benzofuran-5,3′-pyrrolo[2,3-b]pyridine]-2-carboxamide] |
| 1.5 | 0.0098 | – | 396 ± 42 | 1.5 ± 0.1 | 108 ± 18 | 0.12 | C[C@@H]1[C@H](c2c(F)ccc(F)c2F)C[C@H](NC(=O)c2cnc3c(c2)C[C@@]2(C3)C(=O)Nc3ncccc32)C(=O)N1CC(F)(F)F [Atogepant, reference compound] |
| 2.9 | 0.019 | good pharmacokinetic properties | 3590 ± 742 | 2.96 ± 0.3 | 778 ± 144 | 0.68 | C[C@@H]1[C@H](c2c(F)ccc(F)c2F)C[C@H](NC(=O)c2cc3c(s2)C[C@]2(C3)C(=O)Nc3ncccc32)C(=O)N1CC(F)(F)F [Example 3A, (S)—N-((3S,5S,6R)-6-methyl-2-oxo-1-(2,2,2-trifluoroethyl)-5-(2,3,6-trifluorophenyl)piperidin-3-yl)-2′-oxo-1′,2′,4,6-tetrahydrospiro[cyclopenta[b]thiophene-5,3′-pyrrolo[2,3-b]pyridine]-2-carboxamide] |
